In ChEMBL document CHEMBL2092589, “Liver-stage malaria parasites vulnerable to diverse chemical scaffolds” (Proc Natl Acad Sci U S A, 2012):
Structures can show the parent of a compound that is named as a salt.

Legend:
Plasmodium falciparum [1] = test: HARVARD: Inhibition of blood stage Plasmodium falciparum 3D7 infection; assay type: functional, organism-based; conditions: Plasmodium falciparum, 3D7
Plasmodium berghei = test: HARVARD: Inhibition of liver stage Plasmodium berghei infection in HepG2 cells; assay type: functional, organism-based, ANKA; conditions: Plasmodium berghei, ANKA, HepG2
[2] = HARVARD: Cytotoxicity in HepG2 cell line; conditions: human
Plasmodium falciparum [3] = test: HARVARD: Inhibition of blood stage Plasmodium falciparum Dd2 infection; assay type: functional, organism-based; conditions: Plasmodium falciparum, Dd2

| SMILES | IC50 (Plasmodium falciparum [1]) | IC50 (Plasmodium berghei) | IC50 (Plasmodium falciparum [3]) | IC50 ([2]; HepG2 cells) | IC50 ([2]; hepg2) |
| --- | --- | --- | --- | --- | --- |
| Nc1ccc2ncnc(NCCc3ccc(Oc4ccccc4)cc3)c2c1 | – | 12 nM | 1170 nM | 59000 nM | – |
| CCCCCC[C@H]1C(=O)O[C@H](C)[C@H](NC(=O)c2cccc(NC=O)c2O)C(=O)O[C@@H](C)[C@@H]1OC(=O)CC(C)C [ANTIMYCIN A] | – | 2.3 nM | – | > 100000 nM | – |
| COc1ccc(CCN2CCC(Nc3nc4ccccc4n3Cc3ccc(F)cc3)CC2)cc1 [ASTEMIZOLE] | – | – | – | 12000 nM | – |
| Cc1cc(C2CCCCC2)n(O)c(=O)c1 [CICLOPIROX OLAMINE] | – | 1050 nM | – | > 100000 nM | – |
| CN1CCC[C@@H]1CCO[C@](C)(c1ccccc1)c1ccc(Cl)cc1 [CLEMASTINE FUMARATE] | 658 nM | 951 nM | 456 nM | – | > 50000 nM |
| C[C@@H]1C[C@@H]([C@H](O)CC2CC(=O)NC(=O)C2)C(=O)[C@@H](C)C1 [CYCLOHEXIMIDE] | – | 47 nM | – | > 100000 nM | – |
| Cc1cc(N)c2ccccc2[n+]1CCCCCCCCCC[n+]1c(C)cc(N)c2ccccc21 [DEQUALINIUM CHLORIDE] | – | 1710 nM | 134 nM | > 100000 nM | – |
| CC[C@H]1CN2CCc3cc(OC)c(OC)cc3[C@@H]2C[C@@H]1C[C@H]1NCCc2cc(OC)c(OC)cc21 [EMETINE HYDROCHLORIDE] | – | 80 nM | 18 nM | 10000 nM | – |

Continued, in another order:

| IC50 (Plasmodium falciparum [1]) | IC50 (Plasmodium berghei) | IC50 (Plasmodium falciparum [3]) | SMILES | IC50 ([2]; HepG2 cells) | IC50 ([2]; hepg2) |
| --- | --- | --- | --- | --- | --- |
| > 5000 nM | 25 nM | > 5000 nM | CCCc1nc2c(C)cc(-c3nc4ccccc4n3C)cc2n1Cc1ccc(-c2ccccc2C(=O)O)cc1 | > 10000 nM | – |
| – | 472 nM | 258 nM | Nc1nc(Nc2ccc(S(N)(=O)=O)cc2)nn1C(=S)Nc1c(F)cccc1F | > 50000 nM | – |
| – | 0.3 nM | – | O=C1C(O)=C([C@H]2CC[C@H](c3ccc(Cl)cc3)CC2)C(=O)c2ccccc21 [ATOVAQUONE] | > 10000 nM | – |
| – | 219 nM | – | CCN(CC)CCOc1ccc(C(=C(Cl)c2ccccc2)c2ccccc2)cc1 [CLOMIPHENE] | 11000 nM | – |
| 138 nM | 1.65 nM | – | C/C=C/C[C@@H](C)[C@@H](O)[C@H]1C(=O)N[C@@H](CC)C(=O)N(C)CC(=O)N(C)[C@@H](CC(C)C)C(=O)N[C@@H](C(C)C)C(=O)N(C)[C@@H](CC(C)C)C(=O)N[C@@H](C)C(=O)N[C@H](C)C(=O)N(C)[C@@H](CC(C)C)C(=O)N(C)[C@@H](CC(C)C)C(=O)N(C)[C@@H](C(C)C)C(=O)N1C [CYCLOSPORINE] | – | – |
| 340 nM | 2990 nM | 155 nM | COc1cccc2c1C(=O)c1c(O)c3c(c(O)c1C2=O)C[C@@](O)(C(C)=O)C[C@@H]3O[C@H]1C[C@H](N)[C@H](O)[C@H](C)O1 [DAUNORUBICIN] | 9120 nM | – |
| – | 5.4 nM | – | CCCCCCCCCCOc1cc2c(O)c(C(=O)OCC)cnc2cc1OCC [DECOQUINATE] | > 100000 nM | – |
| – | 886 nM | 58 nM | COc1cccc2c1C(=O)c1c(O)c3c(c(O)c1C2=O)C[C@@](O)(C(=O)CO)C[C@@H]3O[C@H]1C[C@H](N)[C@H](O)[C@H](C)O1 [DOXORUBICIN] | 11100 nM | – |
| > 50000 nM | 291 nM | > 50000 nM | COc1ccc2nc([S@@+]([O-])Cc3ncc(C)c(OC)c3C)[nH]c2c1 [ESOMEPRAZOLE POTASSIUM] | > 10000 nM | – |
| – | 760 nM | – | CC(=O)O[C@@H]1C[C@H]2C(C)(C)C(=O)C=C[C@]2(C)[C@H]2CC[C@@]3(C)[C@H](c4ccoc4)OC(=O)[C@H]4O[C@]43[C@@]21C [GEDUNIN] | > 100000 nM | – |
